Measured values taken from ChEMBL document CHEMBL5223094, “Recent advancements in chromone as a privileged scaffold towards the development of small molecules for neurodegenerative therapeutics” (RSC Med Chem, 2022).

What was measured:
Acetylcholinesterase [1] = molecular target: T1, Acetylcholinesterase (Homo sapiens, UniProt P22303); test: Inhibition of AchE (unknown origin) using acetylthiocholine iodide as substrate preincubated for 15 mins followed by substrate addition and measured upto 4 mins by Ellman's spectrophotometric method
[2] = molecular target: T2, Amine oxidase [flavin-containing] A (Homo sapiens, UniProt P21397); test: Inhibition of human MAO-A using tyramine as substrate preincubated for 10 mins followed by substrate addition and measured after 30 mins by fluorometric method
T2 sequence (P21397 whole entry): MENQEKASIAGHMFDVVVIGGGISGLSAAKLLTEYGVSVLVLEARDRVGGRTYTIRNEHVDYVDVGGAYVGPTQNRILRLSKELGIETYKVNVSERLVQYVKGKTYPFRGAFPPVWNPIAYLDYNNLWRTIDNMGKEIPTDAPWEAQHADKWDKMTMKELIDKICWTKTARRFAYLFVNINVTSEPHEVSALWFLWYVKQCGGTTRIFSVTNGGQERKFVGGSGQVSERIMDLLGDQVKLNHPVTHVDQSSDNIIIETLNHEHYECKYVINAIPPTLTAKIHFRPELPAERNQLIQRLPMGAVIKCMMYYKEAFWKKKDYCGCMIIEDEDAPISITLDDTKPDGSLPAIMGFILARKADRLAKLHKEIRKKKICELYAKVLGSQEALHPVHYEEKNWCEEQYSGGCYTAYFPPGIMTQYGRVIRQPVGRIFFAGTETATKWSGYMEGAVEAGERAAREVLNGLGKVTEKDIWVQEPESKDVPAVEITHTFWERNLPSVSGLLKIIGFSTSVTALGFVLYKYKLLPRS

[3] = molecular target: T3, Amine oxidase [flavin-containing] B (Homo sapiens, UniProt P27338); test: Inhibition of human MAO-B using tyramine as substrate preincubated for 10 mins followed by substrate addition and measured after 30 mins by fluorometric method
T3 sequence (P27338 whole entry): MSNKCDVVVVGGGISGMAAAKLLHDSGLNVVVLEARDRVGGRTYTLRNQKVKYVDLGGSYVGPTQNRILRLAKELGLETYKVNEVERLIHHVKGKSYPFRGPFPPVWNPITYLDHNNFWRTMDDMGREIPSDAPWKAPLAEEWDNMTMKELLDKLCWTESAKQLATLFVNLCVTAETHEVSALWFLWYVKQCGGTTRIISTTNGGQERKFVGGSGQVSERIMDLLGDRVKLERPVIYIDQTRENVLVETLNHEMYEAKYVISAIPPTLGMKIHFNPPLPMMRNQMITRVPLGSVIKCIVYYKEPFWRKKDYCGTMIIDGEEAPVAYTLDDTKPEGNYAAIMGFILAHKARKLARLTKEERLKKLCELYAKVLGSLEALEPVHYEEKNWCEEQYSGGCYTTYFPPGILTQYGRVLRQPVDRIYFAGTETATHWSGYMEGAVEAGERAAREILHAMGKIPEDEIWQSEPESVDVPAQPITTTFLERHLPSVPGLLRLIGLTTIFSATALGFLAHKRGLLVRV

[4] = molecular target: T3, Amine oxidase [flavin-containing] B; test: Inhibition of human MAO-B assessed as recovery of enzyme activity by dialysis method; design: scale not given: the % may be the effect or the level left
Acetylcholinesterase [5] = molecular target: T1, Acetylcholinesterase; test: Inhibition of recombinant human AchE using acetylthiocholine iodide as substrate and measured upto 2 mins by Ellman's method
Acetylcholinesterase [6] = molecular target: Acetylcholinesterase (Electrophorus electricus, UniProt O42275); test: Inhibition of electric eel AChE using acetylthiocholine iodide as substrate preincubated for 5 mins followed by substrate addition and measured upto 7.5 mins by Ellman's method
[7] = molecular target: Amyloid-beta precursor protein (Homo sapiens) (UniProt P05067); test: Inhibition of Amyloid beta (1 to 42) (unknown origin) self aggregation and at 20 uM and measured upto 24 hrs by ThT-based fluorimetric assay
Cholinesterase = Cholinesterase (Equus caballus, UniProt P81908); test: Inhibition of equine serum BuchE using butyrylthiocholine iodide as substrate preincubated for 10 mins followed by substrate addition and measured after 20 mins by DTNB based Ellman's method
Acetylcholinesterase [8] = molecular target: T1, Acetylcholinesterase; test: Inhibition of human AchE expressed in human HEK293 cells using acetylthiocholine as substrate preincubated for 10 mins followed by substrate addition and measured after 5 to 8 mins by DTNB based Ellman's spectrophotometric method; type: cell-based
[9] = molecular target: T2, Amine oxidase [flavin-containing] A; test: Inhibition of human MAO-A using kynuramine as substrate preincubated for 5 mins followed by substrate addition and measured after 30 mins by spectroscopic analysis
[10] = molecular target: T3, Amine oxidase [flavin-containing] B; test: Inhibition of human MAO-B using kynuramine as substrate preincubated for 5 mins followed by substrate addition and measured after 30 mins by spectroscopic analysis
[11] = Antioxidant activity assessed as trolox equivalent of ORAC radical scavenging activity incubated for 15 mins by ORAC-fluorescein assay; type: functional
[12] = molecular target: T2, Amine oxidase [flavin-containing] A; test: Inhibition of recombinant human MAO-A using tyramine as substrate preincubated for 30 mins followed by substrate addition and measured after 30 mins by amplex red reagent based fluorometric method
[13] = molecular target: T3, Amine oxidase [flavin-containing] B; test: Inhibition of recombinant human MAO-B using tyramine as substrate preincubated for 30 mins followed by substrate addition and measured after 30 mins by amplex red reagent based fluorometric method

T1 sequence (P22303 whole entry): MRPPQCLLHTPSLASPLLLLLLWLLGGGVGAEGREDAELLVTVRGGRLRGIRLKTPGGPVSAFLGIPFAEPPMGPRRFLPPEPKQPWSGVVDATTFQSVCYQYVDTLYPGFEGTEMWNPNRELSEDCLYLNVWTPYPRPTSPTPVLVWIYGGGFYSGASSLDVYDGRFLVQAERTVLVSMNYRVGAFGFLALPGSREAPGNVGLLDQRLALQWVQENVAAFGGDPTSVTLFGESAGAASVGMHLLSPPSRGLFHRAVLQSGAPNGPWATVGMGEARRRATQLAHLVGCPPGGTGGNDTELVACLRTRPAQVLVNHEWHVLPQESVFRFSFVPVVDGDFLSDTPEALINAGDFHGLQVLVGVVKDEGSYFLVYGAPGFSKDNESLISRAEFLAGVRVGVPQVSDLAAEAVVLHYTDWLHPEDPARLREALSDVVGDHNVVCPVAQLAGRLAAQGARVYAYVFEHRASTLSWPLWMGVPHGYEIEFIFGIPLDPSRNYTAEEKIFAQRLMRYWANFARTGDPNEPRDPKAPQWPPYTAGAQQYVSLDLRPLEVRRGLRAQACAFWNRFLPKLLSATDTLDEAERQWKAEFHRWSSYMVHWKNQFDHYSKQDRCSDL
Chain of Acetylcholinesterase (Electrophorus electricus, UniProt O42275) (O42275 whole entry): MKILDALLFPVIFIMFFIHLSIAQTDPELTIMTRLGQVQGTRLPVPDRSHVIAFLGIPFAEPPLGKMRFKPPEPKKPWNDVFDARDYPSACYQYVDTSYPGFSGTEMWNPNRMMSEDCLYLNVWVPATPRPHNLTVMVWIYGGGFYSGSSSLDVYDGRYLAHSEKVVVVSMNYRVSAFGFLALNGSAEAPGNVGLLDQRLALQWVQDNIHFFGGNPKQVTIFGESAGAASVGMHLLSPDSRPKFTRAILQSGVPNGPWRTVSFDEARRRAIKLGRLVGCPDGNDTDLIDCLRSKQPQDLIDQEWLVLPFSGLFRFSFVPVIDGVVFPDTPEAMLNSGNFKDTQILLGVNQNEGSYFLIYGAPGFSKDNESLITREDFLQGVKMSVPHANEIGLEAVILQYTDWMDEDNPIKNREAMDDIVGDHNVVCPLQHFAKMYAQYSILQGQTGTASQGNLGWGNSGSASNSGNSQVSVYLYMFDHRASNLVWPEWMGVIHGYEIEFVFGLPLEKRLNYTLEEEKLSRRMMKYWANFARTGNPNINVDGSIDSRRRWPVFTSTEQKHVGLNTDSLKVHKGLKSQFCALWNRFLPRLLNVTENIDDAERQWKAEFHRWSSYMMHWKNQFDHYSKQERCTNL
Chain of Amyloid-beta precursor protein (Homo sapiens) (P05067 whole entry): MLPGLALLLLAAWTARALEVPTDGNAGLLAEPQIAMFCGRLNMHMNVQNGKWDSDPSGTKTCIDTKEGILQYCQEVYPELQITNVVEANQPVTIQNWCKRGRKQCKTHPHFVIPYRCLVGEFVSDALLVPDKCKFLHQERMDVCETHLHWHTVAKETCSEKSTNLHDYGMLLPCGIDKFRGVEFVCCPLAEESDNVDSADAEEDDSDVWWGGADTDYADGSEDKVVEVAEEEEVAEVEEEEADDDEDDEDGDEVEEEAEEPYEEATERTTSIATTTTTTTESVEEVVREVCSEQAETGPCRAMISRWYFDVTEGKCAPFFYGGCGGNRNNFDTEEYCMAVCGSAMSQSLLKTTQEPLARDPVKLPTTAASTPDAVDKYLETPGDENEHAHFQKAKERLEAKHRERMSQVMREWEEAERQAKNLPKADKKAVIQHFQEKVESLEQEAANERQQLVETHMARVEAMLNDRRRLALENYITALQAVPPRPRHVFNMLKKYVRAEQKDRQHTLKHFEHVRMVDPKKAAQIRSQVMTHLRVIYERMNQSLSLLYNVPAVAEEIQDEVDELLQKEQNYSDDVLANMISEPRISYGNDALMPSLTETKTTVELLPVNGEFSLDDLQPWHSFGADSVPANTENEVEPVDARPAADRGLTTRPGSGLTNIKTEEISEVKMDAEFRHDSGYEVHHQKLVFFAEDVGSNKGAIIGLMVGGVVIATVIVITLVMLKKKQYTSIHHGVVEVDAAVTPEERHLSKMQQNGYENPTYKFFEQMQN
Chain of Cholinesterase (P81908 whole entry): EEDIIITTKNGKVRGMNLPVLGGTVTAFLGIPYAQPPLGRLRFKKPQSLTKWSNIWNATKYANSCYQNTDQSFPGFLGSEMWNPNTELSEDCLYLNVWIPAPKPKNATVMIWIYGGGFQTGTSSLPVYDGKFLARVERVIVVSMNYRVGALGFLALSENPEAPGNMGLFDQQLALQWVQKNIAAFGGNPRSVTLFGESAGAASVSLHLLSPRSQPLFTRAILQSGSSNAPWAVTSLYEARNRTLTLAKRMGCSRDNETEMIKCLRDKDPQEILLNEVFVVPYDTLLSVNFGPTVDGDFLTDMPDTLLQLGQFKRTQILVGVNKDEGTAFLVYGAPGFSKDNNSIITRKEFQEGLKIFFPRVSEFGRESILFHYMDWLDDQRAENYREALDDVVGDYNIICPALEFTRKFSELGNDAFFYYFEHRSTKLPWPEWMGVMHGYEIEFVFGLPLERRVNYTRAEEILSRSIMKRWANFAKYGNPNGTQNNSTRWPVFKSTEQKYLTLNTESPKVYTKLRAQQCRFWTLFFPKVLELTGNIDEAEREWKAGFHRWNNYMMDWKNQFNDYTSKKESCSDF

SMILES: CCOP(=O)(OCC)C(NCCc1ccc(OC)cc1)c1coc2ccccc2c1=O (centres undefined)
- IC50 (Acetylcholinesterase [1]): 0.1 µM

SMILES: Cc1ccc(NC(=O)c2c(OCc3ccccc3)ccc3c(=O)c(C)c(C)oc23)cc1
- IC50 [2]: 4 µM
- IC50 [3]: 0.1 µM
- Activity [4]: 70%

SMILES: COc1ccc2c(=O)cc(C(=O)NCCN3CCCCC3)oc2c1
- IC50 (Acetylcholinesterase [5]): 0.09 µM

SMILES: Cc1ccc(C#CCOc2ccccc2/C=C/c2cc(=O)c3ccccc3o2)cc1
- IC50 (Acetylcholinesterase [6]): 3 µM
- inhibition [7]: 66%

SMILES: COc1ccc2[nH]cc(CCNC(=O)CN(CCCCC3CCN(Cc4ccccc4)CC3)C(=O)c3cc(=O)c4ccccc4o3)c2c1
- IC50 (Cholinesterase): 0.012 µM
- IC50 (Acetylcholinesterase [8]): 2 µM
- IC50 [9]: 3 µM
- IC50 [10]: 21 µM
- Activity [11]: 3.04 equiv

SMILES: O=C(OCc1ccc(Cl)cc1)c1coc2ccccc2c1=O
- IC50 [12]: 19 µM
- IC50 [13]: 10 µM
